Test systems include Escherichia coli; Candida albicans MDM8; Escherichia coli SBS 363; Micrococcus luteus A270; Bacillus subtilis; Escherichia coli W160-37; Escherichia coli K-12.
Holding throughout (test): ≥ marks a high value that may be exact or a test limit, other limits are often not marked, values filed in µg/mL are converted to µM
Assay [1] deals with Bacillus subtilis CMCC 63501.
Assay [2] concerns Escherichia coli CMCC 44102.
The test system of assay [3] is Listeria monocytogenes ATCC 19115.
Assay [4] concerns Pseudomonas aeruginosa CMCC 10104.
Assay [5] has as its system Staphylococcus aureus CMCC 26003.
For assay [6], the system named is Bacillus cereus ATCC 11778.
For assay [7], the system named is Bacillus subtilis ATCC 23857.
The test system of assay [8] is Candida albicans ATCC 10231.
In assay [9] the test system is Candida albicans NCTC 1467.
For assay [10], the system named is Enterococcus faecalis ATCC 29212.
Assay [11] concerns Enterococcus faecalis NCTC 12697.
The subject of assay [12] is Escherichia coli ATCC 25922.
In assay [13] the test system is Escherichia coli NCTC 10418.
Assay [14] relates to Klebsiella pneumoniae ATCC 700603.
In assay [15] the test system is Listeria monocytogenes ATCC 15313.
The subject of assay [16] is Pseudomonas aeruginosa ATCC 27853.
For assay [17], the system named is Salmonella enterica subsp. enterica serovar Enteritidis ATCC 13076.
Assay [18] has as its system Staphylococcus aureus ATCC 12493.
Assay [19] has as its system Staphylococcus aureus ATCC 25923.
The test system of assay [20] is Staphylococcus aureus NCTC 10788.
The test system of assay [21] is Pseudomonas putida NCIM 2102.
Assay [22] relates to Staphylococcus aureus 8530.
Assay [23] concerns Bacillus subtilis ATCC 6633.
Assay [24] deals with Micrococcus luteus NCIMB 13267.
The test system of assay [25] is Salmonella typhimurium DA22427.
The test system of assay [26] is Salmonella typhimurium DA23899.
Assay [27] relates to Salmonella typhimurium DA6192.
Assay [28] has as its system Staphylococcus aureus ATCC 6538.
Assay [29] has as its system Aspergillus niger CECT 2694.
For assay [30], the system named is Erwinia amylovora PMV 6076.
The test system of assay [31] is Escherichia coli DH5alpha.
Assay [32] relates to Fusarium oxysporum f. sp. lycopersici ATCC 201829.
Assay [33] relates to Penicillium digitatum PHI-26.
Assay [34] has as its system Penicillium expansum EPS 26.
The subject of assay [35] is Pseudomonas syringae EPS 94.
For assay [36], the system named is Rhizopus stolonifer CECT 2344.
The test system of assay [37] is Saccharomyces cerevisiae FY1679.
Assay [38] concerns Xanthomonas vesicatoria 2133-2.

Converted amounts (≈) assume the structure as drawn. “And” between values parts separate entries of the source, which are not always exact repeats. Equal entries are not always repeated.

For orientation: MIC means the lowest concentration that inhibits growth of the organism.

Consider `CC[C@H](C)[C@H](NC(=O)[C@H](CCCN=C(N)N)NC(=O)[C@H](CCCN=C(N)N)NC(=O)[C@H](Cc1c[nH]c2ccccc12)NC(=O)[C@@H](N)Cc1ccccc1)C(=O)N[C@@H](CCCN=C(N)N)C(=O)N[C@H](C(=O)N[C@H](C(=O)N1CCC[C@H]1C(=O)N[C@H](C(=O)N[C@H](C(=O)N[C@@H](CC(N)=O)C(=O)N1CCC[C@H]1C(=O)N[C@@H](Cc1c[nH]c2ccccc12)C(=O)N[C@@H](Cc1ccccc1)C(=O)N[C@@H](CC(C)C)C(=O)N[C@@H](CCC(N)=O)C(=O)N[C@@H](CCC(N)=O)C(=O)N[C@H](C(N)=O)[C@@H](C)O)C(C)C)C(C)C)[C@@H](C)O)C(C)C` [FWRRIRVTPVVNPWFLQQT], for which the minimum inhibitory concentration (MIC) is 26.2 µM (≈ 64 µg/mL) in [1]; not below 105 µM in assay [2]; 13.1 µM (≈ 32 µg/mL) in assay [3]; not below 105 µM in assay [4]; 13.1 µM (≈ 32 µg/mL) in assay [5].
With `CC[C@H](C)[C@H](NC(=O)[C@H](CCCCN)NC(=O)[C@H](CCCCN)NC(=O)[C@H](C)NC(=O)[C@@H](NC(=O)[C@H](C)NC(=O)[C@H](CC(C)C)NC(=O)[C@H](CC(C)C)NC(=O)[C@H](C)NC(=O)[C@H](CCCCN)NC(=O)[C@H](CC(C)C)NC(=O)[C@H](CC(N)=O)NC(=O)[C@@H](N)CC(C)C)C(C)C)C(=O)N[C@@H](CC(C)C)C(N)=O` [LNLKALLAVAKKIL], the minimum inhibitory concentration (MIC) in [6] was 4 µM and 8 µM; in assay [7] it was 4 µM (≈ 6.03 µg/mL); in assay [8], 8 µM (≈ 12.1 µg/mL); in assay [9], 4 µM (≈ 6.03 µg/mL); in assay [10], not below 32 µM; in assay [11], 8 µM (≈ 12.1 µg/mL). In addition, the MIC in assay [12] was 4 µM and 8 µM; in [13], 4 µM (≈ 6.03 µg/mL); against Escherichia coli, 4 µM (≈ 6.03 µg/mL); in assay [14] it was 8 µM (≈ 12.1 µg/mL); in assay [15], 4 µM (≈ 6.03 µg/mL); in [16] it was 8 µM and 16 µM. In addition, the MIC was 4 µM (≈ 6.03 µg/mL) in assay [17], 4 µM (≈ 6.03 µg/mL) in assay [18], 4 µM (≈ 6.03 µg/mL) in [19] and 2 µM (≈ 3.01 µg/mL) in assay [20].
As to `CC[C@H](C)[C@H](NC(=O)[C@H](CC(C)C)NC(=O)[C@H](CCCCN)NC(=O)[C@H](CCCN=C(N)N)NC(=O)[C@H](Cc1ccccc1)NC(=O)[C@H](CC(C)C)NC(=O)[C@H](CO)NC(=O)[C@H](CC(C)C)NC(=O)[C@H](CC(C)C)NC(=O)[C@@H](N)CO)C(N)=O` [SLLSLFRKLI], the MIC against Candida albicans MDM8 worked out at 1.56 µM (≈ 1.85 µg/mL); against Escherichia coli SBS 363, 3.12 µM (≈ 3.71 µg/mL); against Micrococcus luteus A270, 1.56 µM (≈ 1.85 µg/mL).
Regarding `CC[C@H](C)[C@H](NC(=O)[C@H](CC(C)C)NC(=O)[C@H](C)NC(=O)[C@@H]1CCCN1C(=O)[C@H](CC(C)C)NC(=O)CN)C(=O)N[C@@H](CO)C(=O)N[C@@H](Cc1c[nH]c2ccccc12)C(=O)N[C@H](C(=O)N[C@@H](CCCCN)C(=O)N[C@@H](CCCN=C(N)N)C(=O)N[C@@H](CCCCN)C(=O)N[C@@H](CCCN=C(N)N)C(=O)N[C@@H](CCC(N)=O)C(=O)N[C@@H](CCC(N)=O)C(=O)NCC(N)=O)[C@@H](C)CC` [GLPALISWIKRKRQQG], the MIC against Bacillus subtilis is 10.5 µM (≈ 19.4 µg/mL); against Escherichia coli W160-37, 21.4 µM (≈ 39.7 µg/mL); in assay [21] it was not below 108 µM; in [22], 16 µM (≈ 29.6 µg/mL).
Regarding `CC[C@H](C)[C@H](NC(=O)CNC(=O)[C@H](CC(N)=O)NC(=O)[C@H](CCCN=C(N)N)NC(=O)[C@@H](NC(=O)[C@H](CC(N)=O)NC(=O)[C@H](CCCN=C(N)N)NC(=O)CNC(=O)[C@H](CCSC)NC(=O)[C@H](CCCCN)NC(=O)[C@H](CCC(=O)O)NC(=O)[C@@H](NC(=O)[C@H](CCCCN)NC(=O)[C@H](CCCCN)NC(=O)[C@H](Cc1ccccc1)NC(=O)[C@@H](NC(=O)[C@H](CCCCN)NC(=O)[C@H](Cc1c[nH]c2ccccc12)NC(=O)[C@@H](N)CCCCN)C(C)C)[C@@H](C)CC)[C@@H](C)CC)C(=O)N[C@H](C(=O)N[C@@H](CCCCN)C(N)=O)C(C)C` [KWKVFKKIEKMGRNIRNGIVK], the MIC in [23] came to 5 µM (≈ 12.9 µg/mL); against Escherichia coli K-12, 6 µM (≈ 15.4 µg/mL); in assay [24], 1 µM (≈ 2.57 µg/mL); in assay [16] it was 1.5 µM (≈ 3.86 µg/mL); in assay [25] it was 12 µM (≈ 30.9 µg/mL); in [26], 25 µM (≈ 64.3 µg/mL). Moreover, the MIC in assay [27] was 12 µM (≈ 30.9 µg/mL); in [28], more than 100 µM.
In the case of `CC[C@H](C)[C@H](NC(=O)[C@H](CCCCN)NC(=O)[C@H](CCCCN)NC(=O)[C@H](Cc1ccccc1)NC(=O)[C@H](CC(C)C)NC(=O)[C@H](CCCCN)NC(=O)[C@@H](N)CCCCN)C(=O)N[C@@H](CC(C)C)C(=O)N[C@@H](CCCCN)C(=O)N[C@H](C(=O)N[C@@H](CC(C)C)C(N)=O)C(C)C` [KKLFKKILKVL], the MIC in [29] worked out at 6.12 µM (≈ 8.31 µg/mL); in assay [30] it was 5.92 µM (≈ 8.03 µg/mL); in [31], 4 µM (≈ 5.43 µg/mL); in [32] it was 0.849 µM (≈ 1.15 µg/mL); in assay [33] it was 4 µM (≈ 5.43 µg/mL); in assay [34], 13.7 µM (≈ 18.6 µg/mL). The minimal inhibitory concentration (MIC) in [35] stood at 3.16 µM (≈ 4.29 µg/mL); in assay [36] it was 8.66 µM (≈ 11.8 µg/mL); in [37] it was 16 µM (≈ 21.7 µg/mL); in [38] it was 13.4 µM (≈ 18.2 µg/mL).

The values are drawn from DBAASP.
